{
  "source": "patent US20220339143A1",
  "about": "“TAK-925 FOR USE IN TREATING NARCOLEPSY” (Takeda Pharmaceutical Company Limited, priority 2019, published 2022)",
  "key": {"patients with NT1 [1]": {"tested_on": "patients with NT1", "assay": "PVT, multiple dose (Cohorts B1, B2)", "assay_type": "in vivo, human", "conditions": "9 hours postdose"}, "patients with NT1 [2]": {"tested_on": "patients with NT1", "assay": "KSS, multiple dose (Cohorts B1, B2)", "assay_type": "in vivo, human", "conditions": "9 hours postdose", "description": "The purpose of the study was to evaluate the safety, tolerability, pharmacokinetics and pharmacodynamics of Compound A after multiple IV administration in patients with NT1. NT1 patients were evaluated in Cohort B1 and B2 (Table 19). Compound A or placebo were administered via IV infusion over 9 hours once daily for 7 days. A total of 13 patients with NT1 were treated with Compound A or placebo (4, 4, and 5 subjects in the placebo, Compound A 11 mg, and Compound A 44 mg groups, respectively). In this part, potential efficacy of Compound A was evaluated with MWT, ESS, KSS, night-time PSG (NPSG), cataplexy frequency assessment, and PGI-C as an exploratory PD assessment."}},
  "data": [
    {"smiles": "COC(=O)N1CCC[C@H](NS(C)(=O)=O)[C@@H]1CO[C@H]1CC[C@@H](c2ccccc2)CC1", "note": "[Compound A, methyl (2R,3S)-3-((methylsulfonyl)amino)-2-(((cis-4-phenylcyclohexyl)oxy)methyl)piperidine-1-carboxylate]", "values": [
      {"measurement": "PVT, mean change from baseline in the number of lapses", "setting": "patients with NT1 [1]; 11 mg, Day 1 (placebo 10.5)", "value": "−9.3"},
      {"measurement": "PVT, mean change from baseline in mean duration of the reciprocal 10% slowest reaction time (1/RT)", "setting": "patients with NT1 [1]; 11 mg, Day 1 (placebo −0.49)", "value": 0.88},
      {"measurement": "PVT, mean change from baseline in the number of lapses", "setting": "patients with NT1 [1]; 11 mg, Day 7 (placebo 11.8)", "value": "−14.8"},
      {"measurement": "PVT, mean change from baseline in mean duration of the reciprocal 10% slowest reaction time (1/RT)", "setting": "patients with NT1 [1]; 11 mg, Day 7 (placebo −0.73)", "value": 1.27},
      {"measurement": "PVT, mean change from baseline in the number of lapses", "setting": "patients with NT1 [1]; 44 mg, Day 1 (placebo 10.5)", "value": "−12.8"},
      {"measurement": "PVT, mean change from baseline in mean duration of the reciprocal 10% slowest reaction time (1/RT)", "setting": "patients with NT1 [1]; 44 mg, Day 1 (placebo −0.49)", "value": 0.51},
      {"measurement": "PVT, mean change from baseline in the number of lapses", "setting": "patients with NT1 [1]; 44 mg, Day 7 (placebo 11.8)", "value": "−12.8"},
      {"measurement": "PVT, mean change from baseline in mean duration of the reciprocal 10% slowest reaction time (1/RT)", "setting": "patients with NT1 [1]; 44 mg, Day 7 (placebo −0.73)", "value": "−0.70"},
      {"measurement": "mean change from baseline in KSS", "setting": "patients with NT1 [2]; 11 mg, Day 1 (placebo 0.0)", "value": "−3.0"},
      {"measurement": "mean change from baseline in KSS", "setting": "patients with NT1 [2]; 11 mg, Day 7 (placebo −0.3)", "value": "−2.0"},
      {"measurement": "mean change from baseline in KSS", "setting": "patients with NT1 [2]; 44 mg, Day 1 (placebo 0.0)", "value": "−4.4"},
      {"measurement": "mean change from baseline in KSS", "setting": "patients with NT1 [2]; 44 mg, Day 7 (placebo −0.3)", "value": "−4.6"}
    ]}
  ]
}
